US12517136B2, “Il-17F-specific capture agents, compositions, and methods of using and making” (California Institute of Technology, priority 2015, dated 2026)
Like-named read-outs stand apart in the source and are kept apart here. Values belong to the compound of their own block, whether it stands above or below them. Bridge positions count the residues as written; N and C are the ends. Square brackets hold non-standard residues; d marks the D form. Triazole bridges read from a SMILES are 1,4-linked. Peptide text beside a SMILES is read from it. * marks the point of attachment. ξ: configuration not given here. X2 = O=C(CCCC[C@@H]1SC[C@@H]2NC(=O)N[C@@H]21)NCCCOCCOCCOCCCN*; X1 = O=C(CCCCC1SC[C@H]2NC(=O)N[C@@H]12)NCCCOCCOCCOCCCN*; Biotin = O=C1N[C@H]2[C@H](CS[C@H]2CCCCC(=O)*)N1; Lys(N3) = [N-]=[N+]=NCCCC[C@H](N)C(=O)O; Thr(3ξ) = CC(O)[C@H](N)C(=O)O; AEEEA = NCCOCCOCCOCC(=O)O; Pra = C#CC[C@H](N)C(=O)O

Columns and labels:
[1] = tested on: full-length His-tagged IL-17F and IL-17A proteins; assay: Point ELISA (IL-17F vs. IL-17A selectivity assay); format: binding, human; details: figure legends FIG. 2B, 4B, 4C
Protocol: Point ELISA (IL-17F vs. IL-17A selectivity assay). A black 96-well NeutrAvidin Coated High Binding Capacity plate (15510, Pierce) was coated with 2 μM macrocyclic peptide ligand in TBS (pH 7.6) for 2 h at room temperature. The plate was aspirated and then washed with TBS (5×) and Wash Buffer (0.05% (v/v) Tween-20 in PBS, 1×). Full-length His-tagged IL-17F (ab167911, Abcam) and IL-17A (ab166882, Abcam) proteins were prepared at 200 and 50 nM in Wash Buffer and incubated in the designated microwells for 90 min at room temperature. Microwells were aspirated and subsequently washed with Wash Buffer (10×). To detect the bound IL-17F and IL-17A proteins, Alkaline Phosphatase (AP)-conjugated Anti-6×His Tag® antibody [HIS-1] (ab49746, Abcam) was prepared at 1:10,000 dilution and added to the microwells for 1 h at room temperature. The plate was aspirated and washed with Wash Buffer (5×). AttoPhos® AP Fluorescent Substrate System (S1000, Promega) was employed to develop the microwells. Using an excitation wavelength of 430 nm, fluorescent emission at 535 nm was recorded by Beckman Coulter DTX880 photometer.
(§1) For these assays, the full-length His-tagged IL-17F and IL-17A proteins were captured using the macrocyclic peptide ligands immobilized on a NeutrAvidin-coated plate.
Point ELISA (IL-17F vs. IL-17A selectivity assay). A black 96-well NeutrAvidin Coated High Binding Capacity plate (15510, Pierce) was coated with 2 μM macrocyclic peptide ligand in TBS (pH 7.6) for 2 h at room temperature. Biotinylated monoclonal anti-IL17F (TA319597, Origene) was coated at 4 μg/mL in TBS as a control. The plate was aspirated and then washed with TBS (5×) and Wash Buffer (0.05% (v/v) Tween-20 in PBS, 1×). Full-length His-tagged IL-17F (ab167911, Abcam) and IL-17A (ab166882, Abcam) proteins were prepared at 100 nM in Wash Buffer and incubated in the designated microwells for 90 min at room temperature. Microwells were aspirated and subsequently washed with Wash Buffer (10×). To detect the bound IL-17F and IL-17A proteins, Alkaline Phosphatase (AP)-conjugated Anti-6×His Tag® antibody [HIS-1] (ab49746, Abcam) was prepared at 1:10,000 dilution and added to the microwells for 1 h at room temperature. The plate was aspirated and washed with Wash Buffer (5×). AttoPhos® AP Fluorescent Substrate System (S1000, Promega) was employed to develop the microwells. Using an excitation wavelength of 430 nm, fluorescent emission at 535 nm was recorded by Beckman Coulter DTX880 photometer.
as §1

[2] = biological target: Plasmodium falciparum Histidine Rich Protein-2 (Pf.HRP-2) (Plasmodium falciparum, UniProt P05227); format: binding
IL-17F [3] = biological target: T1, IL-17F (Homo sapiens, UniProt Q96PD4); assay: KD of PCC macrocycles and biligands against IL-17F (FIG. 12C); format: binding
T1 sequence (Q96PD4 31-163): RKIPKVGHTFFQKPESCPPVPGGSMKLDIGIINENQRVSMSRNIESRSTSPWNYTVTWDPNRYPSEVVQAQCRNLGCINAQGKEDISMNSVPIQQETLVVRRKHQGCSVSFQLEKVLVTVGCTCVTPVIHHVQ

[4] = tested on: His-tagged IL-17F epitopes; assay: Assay to determine orientation of macrocycle binding to IL-17F Epitope1 (point ELISA); details: for binding to epitope scrambled N-terminal to the click handle: epitope 2 μM, no-epitope background subtracted; for binding to the His-tagged IL-17F epitopes (overall, preferred sequence): three His-tagged epitopes, 2 μM
Protocol: Assay to determine orientation of macrocycle binding to IL-17F Epitope1. A black 96-well NeutrAvidin Coated High Binding Capacity plate (15510, Pierce) was coated with 2 μM macrocyclic peptide ligand in TBS (pH 7.6) for 2 h at room temperature. Biotinylated monoclonal anti-IL17F (TA319597, Origene) was coated at 4 μg/mL in TBS as a control. The plate was aspirated and then washed with TBS (5×) and Wash Buffer (0.05% (v/v) Tween-20 in PBS, 1×). Chemically synthesized His-tagged IL-17F epitopes were prepared at 2 μM in Wash Buffer and incubated in the designated microwells for 90 min at room temperature. Wash Buffer without epitope was added as a control. Microwells were aspirated and subsequently washed with Wash Buffer (10×). To detect the bound IL-17F epitopes, Alkaline Phosphatase (AP)-conjugated Anti-6×His Tag® antibody [HIS-1] (ab49746, Abcam) was prepared at 1:10,000 dilution and added to the microwells for 1 h at room temperature. The plate was aspirated and washed with Wash Buffer (5×). AttoPhos® AP Fluorescent Substrate System (S1000, Promega) was employed to develop the microwells. Using an excitation wavelength of 430 nm, fluorescent emission at 535 nm was recorded by Beckman Coulter DTX880 photometer. Data are shown after subtraction of the no-epitope background.
For this experiment, the IL-17F Epitope1 was re-synthesized with a His6 assay handle and C48S substitution instead of a click handle. Two additional His-tagged IL-17F epitopes were synthesized to contain strategic scrambling of the sequences either N-terminal or C-terminal to C48S. Point ELISAs for the three His-tagged IL-17F epitopes were conducted against the immobilized macrocyclic peptide ligands.

IL-17F [5] = biological target: T1, IL-17F; assay: Sandwich ELISA: immobilized macrocyclic peptide ligand captures full-length His-tagged IL-17F; format: binding; design: Full-length His-tagged IL-17F protein (ab167911, Abcam); purchased Abcam ab167911
Protocol: Sandwich ELISA. A black 96-well NeutrAvidin Coated High Binding Capacity plate (15510, Pierce) was coated with 2 μM macrocyclic peptide ligand in TBS (25 mM Tris-HCl, 150 mM NaCl, pH 7.6) for 2 h at room temperature. Biotinylated monoclonal anti-IL17F (TA319597, Origene) was coated at 4 μg/mL in TBS as a control. The plate was aspirated and then washed with TBS (5×) and Wash Buffer (0.05% (v/v) Tween-20 in PBS, 1×). Full-length His-tagged IL-17F protein (ab167911, Abcam) was serially diluted in Wash Buffer (from 800 to 0 nM) and incubated in the designated microwells for 90 min at room temperature. Microwells were aspirated and subsequently washed with Wash Buffer (10×). […] (ab49746, Abcam) was prepared at 1:10,000 dilution and added to the microwells for 1 h at room temperature. The plate was aspirated and washed with Wash Buffer (5×). AttoPhos® AP Fluorescent Substrate System (S1000, Promega) was employed to develop the microwells. Using an excitation wavelength of 430 nm, fluorescent emission at 535 nm was recorded by Beckman Coulter DTX880 photometer. Titration curves were fit using a four-parameter regression curve fitting program (Origin 8.5) to determine EC50 values.
For these assays, a dilution series of full-length His-tagged IL-17F protein was captured using the macrocyclic peptide ligands immobilized on a NeutrAvidin-coated plate.
Sandwich ELISA. […]

Compound: NCCCC[C@@H]1NC(=O)[C@H](CCC(N)=O)NC(=O)[C@@H](N)Cc2cn(nn2)CCCC[C@@H](C(=O)NCCCOCCOCCOCCCNC(=O)CCCC[C@@H]2SC[C@@H]3NC(=O)N[C@@H]32)NC(=O)[C@@H]2CCCN2C(=O)CNC(=O)[C@H](Cc2c[nH]cn2)NC1=O [Cy(QKHGP), Cy(QKHGP) (SEQ ID NO:15)-PEG3-biotin] (H-[Pra]QKHGP[Lys(N3)]-X2; triazole 1-7)
- preferential binding, IL-17F vs IL-17A (in words) [1]: preferential binding to IL-17F
- preferential binding, IL-17F vs IL-17A (in words) ([1]; listed as QKHGP): preferential binding to IL-17F or IL-17A

Compound: N=C(N)NCCC[C@@H]1NC(=O)[C@H](Cc2ccc(O)cc2)NC(=O)[C@H](Cc2ccc(O)cc2)NC(=O)[C@H](CCCCN)NC(=O)[C@H](Cc2ccc(O)cc2)NC(=O)[C@@H](N)Cc2cn(nn2)CCCC[C@@H](C(N)=O)NC1=O [Cy(YKYYR), Cy(YKYYR) (SEQ ID NO:29)] (H-[Pra]YKYYR[Lys(N3)]-NH2; triazole 1-7)
- EC50 [2]: 220 nM

Compound: C[C@@H](O)[C@@H]1NC(=O)[C@@H](N)Cc2cn(nn2)CCCC[C@@H](C(=O)NCCCOCCOCCOCCCNC(=O)CCCC[C@@H]2SC[C@@H]3NC(=O)N[C@@H]32)NC(=O)[C@@H]2CCCN2C(=O)CNC(=O)[C@H](Cc2c[nH]cn2)NC(=O)[C@H](CCCCN)NC1=O [Cy(TKHGP), Cy(TKHGP) (SEQ ID NO:16)-PEG3-biotin] (H-[Pra]TKHGP[Lys(N3)]-X2; triazole 1-7)
- preferential binding, IL-17F vs IL-17A (in words) [1]: preferential binding to IL-17F

Compound: C[C@@H]1NC(=O)[C@H](CCCNC(=N)N)NC(=O)[C@H](CCCNC(=N)N)NC(=O)[C@@H](NC(=O)COCCOCCOCCNC(=O)[C@@H]2CCCCn3cc(nn3)C[C@H](NC(=O)COCCOCCOCCNC(=O)CCCC[C@@H]3SC[C@@H]4NC(=O)N[C@@H]43)C(=O)N[C@@H](CCCNC(=N)N)C(=O)N[C@@H](CO)C(=O)N[C@@H](Cc3ccc(O)cc3)C(=O)N[C@@H](CC(N)=O)C(=O)N[C@@H](CCCCN)C(=O)N2)Cc2cn(nn2)CCCC[C@@H](C(N)=O)NC(=O)[C@H](CO)NC(=O)[C@H]([C@@H](C)O)NC1=O [Cy(RSYNK)-PEG3-Cy(RRATS), Biotin-PEG3-Cy(RSYNK) (SEQ ID NO:28)-PEG3-Cy(RRATS) (SEQ ID NO: 9)] ({Biotin-AEEEA}-[Pra]RSYNK[Lys(N3)][AEEEA][Pra]RRATS[Lys(N3)]-NH2; triazole 1-7, 9-15)
- Kd (IL-17F [3]): 0.25 nM
- improvement in affinity relative to the individual PCC macrocyclic ligands (IL-17F [3]): > 100 fold

The next lines start with results.

- preferential binding, IL-17F vs IL-17A (in words) [1]: preferential binding to IL-17F
Compound: NCCCC[C@@H]1NC(=O)[C@H](CCCCN)NC(=O)[C@@H](NC(=O)COCCOCCOCCNC(=O)CCCC[C@@H]2SC[C@@H]3NC(=O)N[C@@H]32)Cc2cn(nn2)CCCC[C@@H](C(N)=O)NC(=O)[C@@H]2CCCN2C(=O)[C@H](Cc2c[nH]c3ccccc23)NC(=O)CNC1=O [Cy(KKGWP), Biotin-PEG3-Cy(KKGWP) (SEQ ID NO:23)] ({Biotin-AEEEA}-[Pra]KKGWP[Lys(N3)]-NH2; triazole 1-7)

- preferential binding, IL-17F vs IL-17A (in words) [1]: preferential binding to IL-17F
- binding to epitope scrambled N-terminal to the click handle [4]: Binding was destroyed
Compound: C[C@@H]1NC(=O)[C@H](CCCNC(=N)N)NC(=O)[C@H](CCCNC(=N)N)NC(=O)[C@@H](N)Cc2cn(nn2)CCCC[C@@H](C(=O)NCCCOCCOCCOCCCNC(=O)CCCCC2SC[C@H]3NC(=O)N[C@@H]23)NC(=O)[C@H](CO)NC(=O)[C@H](CCC(N)=O)NC1=O (stereo partly shown) [Cy(RRAQS), Cy(RRAQS) (SEQ ID NO:10)-PEG3-biotin] (H-[Pra]RRAQS[Lys(N3)]-X1; triazole 1-7)
- binding to the His-tagged IL-17F epitopes (overall, preferred sequence) [4]: preferential binding to the sequence FFQKPES

- preferential binding, IL-17F vs IL-17A (in words) [1]: preferential binding to IL-17F
- preferential binding, IL-17F vs IL-17A (in words) ([1]; listed as RSYNK): preferential binding to IL-17F or IL-17A
- Kd (IL-17F [3]; read-out: KD against IL-17F): 15 nM
- EC50 (IL-17F [5]; 2 μM PEG3-biotin ligand on NeutrAvidin plate, His-tagged IL-17F 800 to 0 nM): 15 ± 5 nM
Compound: CC1N[C@@H](CCCCN)C(=O)N[C@H](C(N)=O)CCCCn2cc(nn2)C[C@H](NC(=O)COCCOCCOCCNC(=O)CCCC[C@@H]2SC[C@@H]3NC(=O)N[C@@H]32)C(=O)N[C@@H](CCCNC(=N)N)C(=O)N[C@@H](CO)C(=O)N[C@@H](Cc2ccc(O)cc2)C(=O)N[C@H]1CC(N)=O (stereo partly shown) [Cy(RSYNK), Biotin-PEG3-Cy(RSYNK) (SEQ ID NO:28)]
- binding affinity compared in words (ligand vs biotinylated monoclonal anti-IL17F) (IL-17F [5]; antibody coated at 4 μg/mL): exceeds the binding affinity of the similarly assayed biotinylated monoclonal anti-IL17F

- preferential binding, IL-17F vs IL-17A (in words) [1]: preferential binding to IL-17F
- preferential binding, IL-17F vs IL-17A (in words) ([1]; listed as RRATS): preferential binding to IL-17F or IL-17A
- binding to epitope scrambled N-terminal to the click handle [4]: Binding was destroyed
Compound: CC(O)[C@@H]1NC(=O)[C@H](C)NC(=O)[C@H](CCCNC(=N)N)NC(=O)[C@H](CCCNC(=N)N)NC(=O)[C@@H](N)Cc2cn(nn2)CCCC[C@@H](C(=O)NCCCOCCOCCOCCCNC(=O)CCCCC2SC[C@H]3NC(=O)N[C@@H]23)NC(=O)[C@H](CO)NC1=O (stereo partly shown) [Cy(RRATS), Cy(RRATS) (SEQ ID NO:9)-PEG3-biotin] (H-[Pra]RRA[Thr(3ξ)]S[Lys(N3)]-X1; triazole 1-7)
- binding to the His-tagged IL-17F epitopes (overall, preferred sequence) [4]: preferential binding to the sequence FFQKPES
